From patent publication US12465617B2, “Methods and systems for inhibiting foreign-body responses in diabetic patients” (Medtronic MiniMed, Inc., priority 2013, dated 2025)
“Also recorded” adds a separate entry of the source.

Columns and labels:
diabetic porcine model = assay: Site-loss evaluation of insulin infusion sets in diabetic porcine model (blood glucose >350 mg/dl not corrected by insulin); format: in vivo, pig; settings: for site-loss performance versus the control: agent formulated with insulin (Humalog)
Protocol: The objectives of this study include duplicating the site-loss phenomena observed in previous studies using a diabetic porcine model. Additionally, various infusion set configurations are evaluated for reducing site-loss and extending infusion set wear. Further, site-loss is mitigated using a response-inhibiting agent and/or infusion pump to increase reliability of wear for 3 days and extend infusion set wear beyond 3 days.
The objectives of this study include: duplicating the site-loss phenomena observed in previous studies using the diabetic porcine model; using the established diabetic porcine model to evaluate the effects of various infusion set designs on infusion site-loss; and testing if site-loss can be mitigated by direct pump infusing of immunosuppressant/anti-inflammatory drugs, and/or by modifying infusion set by drug coating.
This study is designed so that each set (inserted under anesthesia) is to be worn for 1 week unless there was set failure/dislodge. Glucose is monitored by a blood glucose meter and Enlite™ sensor. The criteria for determining site loss is that blood glucose is greater than 350 mg/dl and fails to decrease following an insulin dose correction. During biopsy pumps are removed but the cannula is maintained in-situ. Site skin is examined for edema/erythema (swell/redness) (see FIG. 8).

[1] = Assay of rapamycin/Humalog solution after use; format: physicochemical; settings: 20 μg/mL solution assayed after use
[2] = system: normal and diabetic Yucatan pigs; assay: PK/PD study: blood glucose response to Humalog; format: in vivo, Yucatan pig
Excerpt: Factors influencing insulin pK/pD properties include inflammation, infection, immune response, wound healing cascade, age of patients, type of insulin used, site of insertion, layer of scar tissue where the catheter tip resides, and several others. 6 Yucatan pigs were used in this study: 2 normal and 4 diabetic pigs, as shown in […]

diabetic pig = assay: Histopathology of infusion sites (inflammation at catheter tip and body); format: in vivo; settings: listed as Humalog™
Excerpt: FIG. 2A is a series of histologic evaluations at the catheter tip showing the inflammatory response (score), and size of the area with tissue reaction. “*” indicates the catheter location and “F” indicates normal fat. […] FIG. 2B is a series of graphs illustrating the inflammation at the catheter tip for diabetic and non-diabetic pigs. Localized inflammation loosely correlated with site-loss.
FIG. 2C is a series of graphs illustrating the predominate inflammation cells at the catheter tip and catheter body (qualitative). To isolate the main inflammation contributors, a catheter, a catheter infused with insulin (Humalog™), and a catheter infused with placebo were placed on a diabetic pig at the same time.
FIG. 2D is a series of graphs illustrating the predominate inflammation cells at the catheter tip and catheter body of an insulin injection port (i-Port™). To isolate the main inflammation contributors, a catheter, a catheter infused with insulin, and a catheter infused with placebo were placed on a diabetic pig. Compared to continuous infusion, the giant cells are missing in the i-Port™ study. […] As observed by the pathologist, the pigs may have developed a hypersensitivity to the Humalog™ and such a reaction would contribute to the inflammation seen (the degree that hypersensitivity is influencing the inflammation is unclear but it could be one of the main drivers).

With `C[C@H]1C[C@H]2[C@@H]3CCC4=CC(=O)C=C[C@]4(C)[C@@]3(F)[C@@H](O)C[C@]2(C)[C@@]1(O)C(=O)COP(=O)([O-])[O-].[Na+].[Na+]` [BSP, betamethasone sodium phosphate] the “site-loss performance versus the control” value (diabetic porcine model) was “significantly worse than the control”.
With `C[C@@H]1C[C@H]2[C@@H]3CCC4=CC(=O)C=C[C@]4(C)[C@@]3(F)[C@@H](O)C[C@]2(C)[C@@]1(O)C(=O)COP(=O)(O)O` [DXP, Dexamethasone Phosphate] the “site-loss performance versus the control” value (diabetic porcine model) was “significantly worse than the control”.
With `CO[C@H]1C[C@@H]2CC[C@@H](C)[C@@](O)(O2)C(=O)C(=O)N2CCCC[C@H]2C(=O)O[C@H]([C@H](C)C[C@@H]2CC[C@@H](O)[C@H](OC)C2)CC(=O)[C@H](C)/C=C(\C)[C@@H](O)[C@@H](OC)C(=O)[C@H](C)C[C@H](C)/C=C/C=C/C=C/1C` [Rapamycin] the “recovery of infusion site after” value (diabetic porcine model; dosed with Humalog) was “around 6 days”, the “duration of wear before site-loss” value (diabetic porcine model; formulation of insulin (Humalog) with agent, Sof-Set) was 5 days and the “stability of rapamycin in U100 Humalog solution” value [1] was “*Rapamycin was later found to be degraded by assaying solution after use”.
With Dextran Sulfate Sodium Salt the “site-loss performance versus the control” value (diabetic porcine model) was “significantly better than the control”.
In the case of Insulin lispro, the “blood glucose level lowering” value [2] is reported as “effectively lower blood glucose level”, the “order of evaluated inflammation scores” value (diabetic pig; catheter, catheter infused with insulin, catheter infused with placebo on a diabetic pig) is reported as “insulin≥placebo≥catheter; also recorded: insulin≥placebo≥cannula” and the “localized inflammation / tissue fibrosis” value (diabetic pig; compared to catheter and placebo) is reported as “associated with increased localized inflammation; also recorded: main contributor to localized tissue fibrosis”.
For heparin sodium, the “no site-loss occurred in” value (diabetic porcine model; U100 Humalog with heparin sodium 3.55 mg/mL (685 U/mL), continuous infusion, pigs IM3 and IM4, control IM1 site-loss in 2 days) was > 6 days and the “site-loss performance versus the control” value (diabetic porcine model) was “significantly better than the control”.
